Results on 16 molecules are retold here after ChEMBL document CHEMBL1145561, “Pyrrolo[1,2-b]pyridazin-2-ones as potent inhibitors of HCV NS5B polymerase” (Bioorg Med Chem Lett, 2008).

In data set [1] the test system is Hepatitis C virus. As to the kind of experiment: Inhibition of HCV 1b NS5B RNA polymerase. More on the design: species or system Hepatitis C virus subtype 1b.
For data set [2], the system named is Hepatitis C virus. Briefly: Antiviral activity against HCV 1b in human Huh7/C24 cells after 72 hrs by replicon cell assay. The class given is functional, organism-based, Hepacivirus hominis. The conditions noted are these: genotype 1b, Huh-7, 72 h. For orientation: In antiviral work, replicon cells carry a viral genome segment that copies itself.
Data set [3] is described as follows: Cytotoxicity against human Huh7/C24 cells after 72 hrs. The data set is classed as cell-based, Huh-7.
Data set [4] in a line: (§1) Metabolic stability in human liver microsomes assessed as half life at 5 uM. The class given is ADME, Microsome. The conditions noted are these: liver microsomes. For orientation: Microsomes from liver hold many membrane-bound enzymes, among them those of drug oxidation.
Data set [5] in a line: Metabolic stability in human liver microsomes assessed as remains after 60 mins at 5 uM. The data set is classed as ADME, Microsome. The conditions noted are these: read-out: Stability.
Data set [6] is described as follows: Metabolic stability in cynomolgus monkey liver microsomes assessed as half life at 1 uM. The class given is ADME, Macaca fascicularis, Microsome.
A short description of data set [7]: Solubility at pH 7.5. The conditions noted are these: buffer. The class given is physicochemical.
Data set [8] can be described thus: Apparent permeability from apical to basolateral side in human Caco-2 cells at 10 uM. The data set is classed as ADME, cell-based. (Passage across Caco-2 layers is used to estimate intestinal permeability.)
The nature of data set [9]: Oral bioavailability in cynomolgus monkey at 1 mg/kg. The class given is ADME, organism-based, Macaca fascicularis. The conditions noted are these: in vivo.
Data set [10] deals with Cynomolgus monkey. Briefly: AUC (infinity) in cynomolgus monkey at 1 mg/kg, po. Conditions: in vivo. More on the design: time infinity, dose 1 mg/kg, route oral. The data set is classed as ADME, organism-based, Macaca fascicularis, Plasma.
Data set [11] relates to Cynomolgus monkey. As to the kind of experiment: AUC (infinity) in cynomolgus monkey at 1 mg/kg, iv. The class given is ADME, organism-based, Macaca fascicularis, Plasma. More on the design: time infinity, dose 1 mg/kg, route intravenous. Conditions: in vivo.
The nature of data set [12]: Clearance in cynomolgus monkey at 1 mg/kg, iv. The class given is ADME, organism-based, Macaca fascicularis. More on the design: dose 1 mg/kg, route intravenous. The conditions noted are these: in vivo.
Data set [13] is described as follows: Metabolic stability in cynomolgus monkey liver microsomes assessed as remains after 60 mins at 1 uM. Conditions: read-out: Stability. The data set is classed as ADME, Macaca fascicularis, Microsome.
For a further data set, the system named is Liver microsomes. The data set is described as §1. The class given is ADME, Microsome. Conditions: microsomes, 5 µM.

The IC50 is the point on the concentration scale where inhibition reaches its midpoint. Usually EC50 stands for the concentration giving half of the maximal effect. What is called CC50 is the concentration at which the toxic effect on the cells reaches its halfway point. What is called half-life is the time needed for the level to fall by half in the phase considered. On to `CS(=O)(=O)Nc1ccc2c(c1)S(=O)(=O)N=C(c1c(O)c3cccn3n(Cc3ccc(F)c(Cl)c3)c1=O)N2`, for which the midpoint of inhibition with Hepatitis C virus [1], the IC50, lay at 25 nM. In addition, a half-maximal response with Hepatitis C virus [2] (EC50) required 22 nM. This molecule also displayed a CC50 at 72 h in data set [3] above 1000 nM. Further, the half-life at 5 µM in data set [4] was above 60 min. Besides, in [5], the remaining at 1 h, 5 µM is 102%.

What is called solubility is how much of the substance goes into solution per volume. In general, Papp A→B refers to the apparent permeability from the apical to the basolateral side of a cell layer. A word on the bioavailability: it is dose-corrected exposure relative to a reference, in per cent. For orientation: AUC means the area under the concentration-time curve, a measure of exposure. In general, clearance refers to a measure of how efficiently the substance is removed, as volume per time. As to `CC(C)CCn1c(=O)c(C2=NS(=O)(=O)c3ccccc3N2)c(O)c2cccn21`, in the data set on Hepatitis C virus [1], the half-maximal inhibitory concentration (IC50) is 980 nM. In the data set on Hepatitis C virus [2], this molecule gave an EC50 of 5300 nM. Also, the CC50 at 72 h in data set [3] is above 100000 nM. The half-life at 5 µM in data set [4] amounted to 14 min. Besides, the half-life at 1 µM in data set [6] was 11 min. In data set [7], this molecule yielded a solubility above 200 µM. For the same molecule, the Papp A→B at 10 µM in [8] was 11 ×10⁻⁶ cm/s. The molecule further returned a bioavailability in data set [9] of 63%. In addition, the AUC in the data set with Cynomolgus monkey [10] came out at 12900 ng·h/mL; with Cynomolgus monkey [11], 20500 ng·h/mL. The clearance in data set [12] turned out to be 49 mL/min/kg.

`CC(C)CCn1c(=O)c(C2=NS(=O)(=O)c3cc(N(C)S(C)(=O)=O)ccc3N2)c(O)c2cccn21`: inhibition in the data set on Hepatitis C virus [1] was half-maximal at 110 nM (IC50). This molecule also showed an EC50 in the data set with Hepatitis C virus [2] of 190 nM. This molecule had a CC50 at 72 h in data set [3] above 33000 nM. Besides, in data set [4], the half-life at 5 µM was above 60 min. Further, in [5], the remaining at 1 h, 5 µM came to 55%. The half-life at 1 µM in data set [6] amounted to 60 min. In [7], this molecule returned a solubility above 100 µM. The Papp A→B at 10 µM in [8] turned out to be 4.3 ×10⁻⁶ cm/s. The molecule further had a bioavailability in [9] of 7%. The AUC in the data set on Cynomolgus monkey [10] was found to be 79 ng·h/mL; with Cynomolgus monkey [11], 1060 ng·h/mL. The molecule also had a clearance in [12] of 16 mL/min/kg.

`CN(c1ccc2c(c1)S(=O)(=O)N=C(c1c(O)c3cccn3n(Cc3ccc(F)cc3)c1=O)N2)S(C)(=O)=O` yielded an IC50 with Hepatitis C virus [1] of 130 nM. Moreover, the EC50 with Hepatitis C virus [2] was determined as 330 nM. In data set [3], this molecule registered a CC50 at 72 h above 10000 nM. Moreover, the half-life at 5 µM in data set [4] is above 60 min. Besides, the remaining at 1 h, 5 µM in [5] stood at 90%. In [6], the half-life at 1 µM is above 60 min. Further, the remaining at 1 h, 1 µM in data set [13] came to 90%. Further, the solubility in data set [7] is above 60 µM. Also, the Papp A→B at 10 µM in data set [8] is 0.9 ×10⁻⁶ cm/s. This molecule also gave a bioavailability in [9] of 6%. Further, the AUC in the data set with Cynomolgus monkey [10] was determined as 107 ng·h/mL; in the data set with Cynomolgus monkey [11] it was 1780 ng·h/mL. The same molecule showed a clearance in [12] of 9 mL/min/kg.

Regarding `COc1ccc2c(c1)S(=O)(=O)N=C(c1c(O)c3cccn3n(CCC(C)C)c1=O)N2`, in the data set on Hepatitis C virus [1], the midpoint of inhibition, the IC50, lay at 2200 nM. Also, in the data set on Hepatitis C virus [2], the midpoint of the response, the EC50, lay at 17000 nM. In data set [3], this molecule yielded a CC50 at 72 h above 100000 nM.

Turning to `CC(C)CCn1c(=O)c(C2=NS(=O)(=O)c3cc(NS(C)(=O)=O)ccc3N2)c(O)c2cc(C#N)cn21`, the IC50 with Hepatitis C virus [1] came out at 320 nM.

For the molecule `CC(C)CCn1nc(-c2cccs2)c(O)c(C2=Nc3ccc(NS(C)(=O)=O)cc3S(=O)(=O)N2)c1=O`, the solubility in data set [7] is above 100 µM. In data set [8], the Papp A→B at 10 µM was found to be 0.03 ×10⁻⁶ cm/s. In data set [9], the bioavailability amounted to 2%. Moreover, the figures for the AUC in the data set with Cynomolgus monkey [10] and in the data set on Cynomolgus monkey [11] were 30 ng·h/mL and 1330 ng·h/mL, respectively.

Regarding `CC(C)CCn1c(=O)c(C2=Nc3ccc(NS(C)(=O)=O)cc3S(=O)(=O)N2)c(O)c2cccn21`, the IC50 in the data set on Hepatitis C virus [1] is below 10 nM. Besides, the EC50 with Hepatitis C virus [2] was found to be 8.5 nM. The molecule further had a CC50 at 72 h in data set [3] above 1000 nM. The half-life at 5 µM in data set [4] is 42 min. The half-life at 1 µM in [6] is above 60 min. Further, the remaining at 1 h, 1 µM in [13] was determined as 66%. The molecule also yielded a solubility in data set [7] above 100 µM. For the same molecule, the Papp A→B at 10 µM in data set [8] was determined as 0.2 ×10⁻⁶ cm/s. This molecule came in with an AUC with Cynomolgus monkey [10] of 83 ng·h/mL.

As for `CC(C)CCn1c(=O)c(C2=NS(=O)(=O)c3cc(NS(C)(=O)=O)ccc3N2)c(O)c2cc(F)cn21`, in the data set on Hepatitis C virus [1], the IC50 was found to be 27 nM. In the data set on Hepatitis C virus [2], this molecule registered an EC50 of 19 nM. The same molecule returned a cytotoxic concentration (CC50) at 72 h in data set [3] above 1000 nM. Further, in data set [4], the half-life at 5 µM was above 60 min. Besides, the remaining at 1 h, 5 µM in data set [5] is 78%.

The molecule `CC(C)(C)CCn1c(=O)c(C2=NS(=O)(=O)c3cc(NS(C)(=O)=O)ccc3N2)c(O)c2cccn21` had an IC50 in the data set on Hepatitis C virus [1] below 10 nM. Moreover, in the data set on Hepatitis C virus [2], the midpoint of the response, the EC50, lay at 5 nM. This molecule also gave a CC50 at 72 h in data set [3] above 1000 nM. In addition, the half-life at 5 µM in data set [4] turned out to be 10 min. In data set [6], the half-life at 1 µM is 14 min. In data set [7], this molecule yielded a solubility above 100 µM. Also, the Papp A→B at 10 µM in [8] was 0.7 ×10⁻⁶ cm/s. Besides, the bioavailability in data set [9] is 2%. The figures for the AUC with Cynomolgus monkey [10] and with Cynomolgus monkey [11] were 25 ng·h/mL and 1210 ng·h/mL, respectively. Moreover, the clearance in data set [12] is 14 mL/min/kg.

Molecule `CC(C)CCn1c(=O)c(C2=NS(=O)(=O)c3cc(NS(=O)(=O)C4CC4)ccc3N2)c(O)c2cccn21` gave an IC50 with Hepatitis C virus [1] of 160 nM. In addition, the EC50 in the data set with Hepatitis C virus [2] came out at 96 nM. In [3], this molecule showed a CC50 at 72 h above 33000 nM. Besides, the half-life at 5 µM in data set [4] is 59 min. Moreover, in [6], the half-life at 1 µM is above 60 min. The remaining at 1 h, 1 µM in [13] stood at 87%. The solubility in [7] was above 100 µM. Moreover, the Papp A→B at 10 µM in data set [8] turned out to be 0.8 ×10⁻⁶ cm/s. The molecule further had a bioavailability in [9] of 4%. Further, the AUC in the data set on Cynomolgus monkey [10] is 141 ng·h/mL; in the data set with Cynomolgus monkey [11], 3770 ng·h/mL. For the same molecule, the clearance in [12] is 5 mL/min/kg.

`CS(=O)(=O)Nc1ccc2c(c1)S(=O)(=O)N=C(c1c(O)c3cccn3n(Cc3ccc(F)cc3)c1=O)N2`: in the data set on Hepatitis C virus [1], the IC50 is below 10 nM. In data set [3], this molecule yielded a CC50 at 72 h above 1000 nM. Further, the half-life at 5 µM in [4] was above 60 min. The remaining at 1 h, 5 µM in data set [5] is 86%. Further, the half-life at 1 µM in data set [6] is above 60 min. Also, the remaining at 1 h, 1 µM in data set [13] stood at 90%. Besides, in data set [7], the solubility is above 100 µM. Also, the Papp A→B at 10 µM in data set [8] stood at 0.1 ×10⁻⁶ cm/s. The same molecule had a bioavailability in [9] of 1%. Besides, the values for the AUC in the data set on Cynomolgus monkey [10] and in the data set on Cynomolgus monkey [11] were 6 ng·h/mL and 539 ng·h/mL, respectively. This molecule also registered a clearance in data set [12] of 31 mL/min/kg.

`O=c1c(C2=NS(=O)(=O)c3ccccc3N2)c(O)c2cccn2n1Cc1ccc(F)cc1` gave an IC50 in the data set with Hepatitis C virus [1] of 850 nM. For the same molecule, the t1/2 in the data set on Liver microsomes came out at 45 min.

Take `CN(c1ccc2c(c1)S(=O)(=O)N=C(c1c(O)c3cccn3n(CCC(C)(C)C)c1=O)N2)S(C)(=O)=O`: the IC50 in the data set on Hepatitis C virus [1] came to 60 nM. For the same molecule, the EC50 in the data set with Hepatitis C virus [2] was found to be 120 nM. Further, the CC50 at 72 h in data set [3] was above 33000 nM. Besides, the half-life at 5 µM in [4] was 49 min.

As for `O=c1c(C2=NS(=O)(=O)c3cc(C4CCCS4(=O)=O)ccc3N2)c(O)c2cccn2n1Cc1ccc(F)cc1` (racemic), in the data set on Hepatitis C virus [1], the IC50 came to 130 nM. Further, the EC50 in the data set with Hepatitis C virus [2] came out at 380 nM. Besides, the CC50 at 72 h in data set [3] is above 33000 nM. Also, in data set [4], the half-life at 5 µM is above 60 min. Also, the remaining at 1 h, 5 µM in data set [5] was 100%.

As for `CC(C)NCC(O)COc1cccc2ccccc12` (stereo unspecified) [PROPRANOLOL], in data set [8], the Papp A→B at 10 µM was 10 ×10⁻⁶ cm/s.
